Measurements published in patent US20020137929A1, “1 - (3-heterocyclylphenyl) isothiourea, -isourea, -guanidine and -amidine herbicidal agents” (Intellectual Property Department, BASF Aktiengesellschaft, priority 1998, published 2002).

What was measured:
ZEAMX (Corn, Field) = experiment: Postemergence herbicidal evaluation; type: in vivo, Zea mays; conditions: postemergence
How it was run: (§1)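 Visual 0–9 rating versus control (stand, vigor, malformation, size, chlorosis, overall appearance), taken four to five weeks post-spray. Two-week-old seedlings received roughly 0.0156–0.500 kg/ha active in acetone/water (50/50) with 0.5% TWEEN 20 via nozzle at 40 psi.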

CYPIR (Rice Flatsedge) = experiment: Preemergence weed control under flooded paddy conditions; type: in vivo, Cyperus iria; conditions: rated 3-4 weeks after treatment
How it was run: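 Seeds or propagules sown in top 0.5 cm of silt loam soil, flooded 1.5 to 3 cm above surface throughout. Compound in 50/50 v/v aqueous/acetone pipetted into flood water at about 0.0313 to 0.500 kg/ha. Visual 0-9 rating versus control after three to four weeks in greenhouse.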

[1] = system: ECHORC (Watergrass (Calif.)); experiment: Postemergence weed control under flooded paddy conditions; type: in vivo, Echinochloa oryzoides; conditions: postemergence weeds, 3-4 weeks after treatment
How it was run: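 Containers holding 3–5 cm weeds and rice at 1.5–2.5 leaves are flooded to 1.5–3 cm above soil. Compound in 50/50 v/v aqueous/acetone is then added directly to the water, about 0.0313–0.500 kg/ha. Plants are kept in the greenhouse and rated 0–9 visually at 3–4 weeks.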

SETVI (Foxtail, Green) [2] = experiment: Preemergence herbicidal evaluation; type: in vivo, Setaria viridis; conditions: rated 4-5 weeks after treatment
How it was run: (§2)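 Greenhouse preemergence test: seed-soil mix sown on ~1 inch soil; aqueous acetone spray at equivalent of ~0.0156–0.500 kg/ha; greenhouse-held and watered; scored 0–9 visually at 4–5 weeks.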

GALAP (Galium) = experiment: Preemergence herbicidal evaluation; type: in vivo, Galium aparine; conditions: rated 4-5 weeks after treatment
How it was run: as §2

[3] = system: CHEAL (Lambsquarters, Common); experiment: Postemergence herbicidal evaluation; type: in vivo, Chenopodium album; conditions: postemergence
How it was run: as §1

AMBEL (Ragweed, Common) = experiment: Preemergence herbicidal evaluation; type: in vivo, Ambrosia artemisifolia; conditions: rated 4-5 weeks after treatment
How it was run: as §2

[4] = system: SAGPY (Arrowhead (Pygmaea)); experiment: Postemergence weed control under flooded paddy conditions; type: in vivo, Sagittaria pygmaea; conditions: postemergence weeds, 3-4 weeks after treatment
From the text: Results of herbicide evaluation are expressed on a rating scale (0-9). The scale is based upon a visual observation of plant stand, vigor, malformation, size, chlorosis and overall plant appearance as compared with a control.
Plastic containers containing weeds which are 3 to 5 cm tall and rice seedlings at the 1.5 to 2.5 leaf stage are flooded with water. The water is maintained at 1.5 to 3 cm above the soil surface for the duration of the experiment. Test compounds are applied as aqueous/ acetone mixtures 50/50 v/v directly into the flood water to provide the equivalent of about 0.0313 to 0.500 kg/ha of active ingredient. The treated containers are placed on greenhouse benches and cared for in accordance with conventional greenhouse procedures. Three to four weeks after treatment, the test is terminated and each container is examined and herbicidal effect rated according to the rating system provided in Example 37. The compounds evaluated are reported by compound number given in Example 37.

[5] = system: TRZAWR (Wheat, Winter, cv Riband); experiment: Postemergence herbicidal evaluation; type: in vivo, Triticum aestivum; conditions: postemergence
How it was run: as §1

SETVI (Foxtail, Green) [6] = experiment: Postemergence herbicidal evaluation; type: in vivo, Setaria viridis; conditions: postemergence
How it was run: as §1

ABUTH (Velvetleaf) = experiment: Postemergence herbicidal evaluation; type: in vivo, Abutilon theophrasti; conditions: postemergence
How it was run: as §1

ORYSAT (Rice, Tebonnet) = experiment: Postemergence herbicidal evaluation; type: in vivo, Oryza sativa, (L.) Tebonnet; conditions: postemergence
How it was run: as §1

[7] = system: GLXMAW (Soybean, Williams); experiment: Postemergence herbicidal evaluation; type: in vivo, Glycine max, (L.) Merr. cv Williams; conditions: postemergence
How it was run: as §1

Structure (SMILES): CCOC(=O)CN1C(=O)CN(C)C1=Nc1cc(-n2c(=O)cc(C(F)(F)F)n(C)c2=O)c(F)cc1Cl [Compound 25, Ethyl 2-{{2-chloro-5-[3,6-dihydro-3-methyl-2,6-dioxo-4-(trifluoromethyl)-1(2H)-pyrimidinyl]-4-fluorophenyl}imino}-3-methyl-5-oxo-1-imidazolidineacetate]
- ZEAMX herbicidal rating (ZEAMX (Corn, Field); rate 0.0156 kg/ha): 3.5
- ZEAMX herbicidal rating (ZEAMX (Corn, Field); rate 0.0313 kg/ha): 5.5
- ZEAMX herbicidal rating (ZEAMX (Corn, Field); rate 0.0625 kg/ha): 7.0
- Herbicidal rating CYPIR (CYPIR (Rice Flatsedge); 0.0313 kg/ha): 0.0
- Herbicidal rating CYPIR (CYPIR (Rice Flatsedge); 0.0625 kg/ha): 0.0
- Herbicidal rating CYPIR (CYPIR (Rice Flatsedge); 0.1250 kg/ha): 0.0
- Herbicidal rating CYPIR (CYPIR (Rice Flatsedge); 0.2500 kg/ha): 0.0
- Herbicidal rating ECHORC ([1]; rate 0.0313 kg/ha): 4.0
- Herbicidal rating ECHORC ([1]; rate 0.0625 kg/ha): 6.0
- Herbicidal rating ECHORC ([1]; rate 0.1250 kg/ha): 7.0
- Herbicidal rating ECHORC ([1]; rate 0.2500 kg/ha): 9.0
- Preemergence herbicidal rating SETVI (SETVI (Foxtail, Green) [2]; rate 0.0156 kg/ha): 0.0
- Preemergence herbicidal rating SETVI (SETVI (Foxtail, Green) [2]; rate 0.0313 kg/ha): 0.0
- SETVI preemergence herbicidal rating (SETVI (Foxtail, Green) [2]; rate 0.0625 kg/ha): 7.0
- SETVI preemergence herbicidal rating (SETVI (Foxtail, Green) [2]; rate 0.1250 kg/ha): 9.0
- SETVI preemergence herbicidal rating (SETVI (Foxtail, Green) [2]; rate 0.2500 kg/ha): 9.0
- Preemergence herbicidal rating GALAP (GALAP (Galium); rate 0.0156 kg/ha): 0.0
- Preemergence herbicidal rating GALAP (GALAP (Galium); rate 0.0313 kg/ha): 0.0
- GALAP preemergence herbicidal rating (GALAP (Galium); rate 0.0625 kg/ha): 0.0
- GALAP preemergence herbicidal rating (GALAP (Galium); rate 0.1250 kg/ha): 0.0
- GALAP preemergence herbicidal rating (GALAP (Galium); rate 0.2500 kg/ha): 0.0
- CHEAL herbicidal rating ([3]; rate 0.0156 kg/ha): 2.0
- CHEAL herbicidal rating ([3]; rate 0.0313 kg/ha): 5.0
- CHEAL herbicidal rating ([3]; rate 0.0625 kg/ha): 9.0
- Preemergence herbicidal rating AMBEL (AMBEL (Ragweed, Common); rate 0.0156 kg/ha): 0.0
- Preemergence herbicidal rating AMBEL (AMBEL (Ragweed, Common); rate 0.0313 kg/ha): 2.0
- AMBEL preemergence herbicidal rating (AMBEL (Ragweed, Common); rate 0.0625 kg/ha): 9.0
- AMBEL preemergence herbicidal rating (AMBEL (Ragweed, Common); rate 0.1250 kg/ha): 9.0
- AMBEL preemergence herbicidal rating (AMBEL (Ragweed, Common); rate 0.2500 kg/ha): 9.0
- Herbicidal rating SAGPY ([4]; rate 0.0313 kg/ha): 0.0
- Herbicidal rating SAGPY ([4]; rate 0.0625 kg/ha): 0.0
- Herbicidal rating SAGPY ([4]; rate 0.1250 kg/ha): 5.0
- Herbicidal rating SAGPY ([4]; rate 0.2500 kg/ha): 5.0
- TRZAWR herbicidal rating ([5]; rate 0.0156 kg/ha): 2.0
- TRZAWR herbicidal rating ([5]; rate 0.0313 kg/ha): 3.0
- TRZAWR herbicidal rating ([5]; rate 0.0625 kg/ha): 3.0
- SETVI herbicidal rating (SETVI (Foxtail, Green) [6]; rate 0.0156 kg/ha): 0.0
- SETVI herbicidal rating (SETVI (Foxtail, Green) [6]; rate 0.0313 kg/ha): 0.0
- SETVI herbicidal rating (SETVI (Foxtail, Green) [6]; rate 0.0625 kg/ha): 0.0
- ABUTH herbicidal rating (ABUTH (Velvetleaf); rate 0.0156 kg/ha): 9.0
- ABUTH herbicidal rating (ABUTH (Velvetleaf); rate 0.0313 kg/ha): 9.0
- ABUTH herbicidal rating (ABUTH (Velvetleaf); rate 0.0625 kg/ha): 9.0
- ORYSAT herbicidal rating (ORYSAT (Rice, Tebonnet); rate 0.0156 kg/ha): 0.5
- ORYSAT herbicidal rating (ORYSAT (Rice, Tebonnet); rate 0.0313 kg/ha): 2.0
- ORYSAT herbicidal rating (ORYSAT (Rice, Tebonnet); rate 0.0625 kg/ha): 2.0
- GLXMAW herbicidal rating ([7]; rate 0.0156 kg/ha): 7.0
- GLXMAW herbicidal rating ([7]; rate 0.0313 kg/ha): 7.5
- GLXMAW herbicidal rating ([7]; rate 0.0625 kg/ha): 8.0

Structure (SMILES): CCOC(=O)CN1C(=O)C(Cc2ccccc2)SC1=Nc1cc(-n2c(=O)cc(C(F)(F)F)n(C)c2=O)c(F)cc1Cl (stereo not drawn) [Compound 24, Ethyl 5-benzyl-2-{{2-chloro-5-[3,6-dihydro-3-methyl-2,6-dioxo-4-(trifluoromethyl)-1(2H)-pyrimidinyl]-4-fluorophenyl}imino}-4-oxo-3-thiazolidineacetate]
- ZEAMX herbicidal rating (ZEAMX (Corn, Field); rate 0.0158 kg/ha): 4.0
- ZEAMX herbicidal rating (ZEAMX (Corn, Field); rate 0.0315 kg/ha): 4.5
- ZEAMX herbicidal rating (ZEAMX (Corn, Field); rate 0.0630 kg/ha): 5.5
- Herbicidal rating CYPIR (CYPIR (Rice Flatsedge); 0.0313 kg/ha): 0.0
- Herbicidal rating CYPIR (CYPIR (Rice Flatsedge); 0.0625 kg/ha): 0.0
- Herbicidal rating CYPIR (CYPIR (Rice Flatsedge); 0.1250 kg/ha): 0.0
- Herbicidal rating CYPIR (CYPIR (Rice Flatsedge); 0.2500 kg/ha): 0.0
- Herbicidal rating ECHORC ([1]; rate 0.0313 kg/ha): 4.0
- Herbicidal rating ECHORC ([1]; rate 0.0625 kg/ha): 9.0
- Herbicidal rating ECHORC ([1]; rate 0.1250 kg/ha): 9.0
- Herbicidal rating ECHORC ([1]; rate 0.2500 kg/ha): 9.0
- SETVI preemergence herbicidal rating (SETVI (Foxtail, Green) [2]; rate 0.0625 kg/ha): 0.0
- SETVI preemergence herbicidal rating (SETVI (Foxtail, Green) [2]; rate 0.1250 kg/ha): 0.0
- SETVI preemergence herbicidal rating (SETVI (Foxtail, Green) [2]; rate 0.2500 kg/ha): 1.0
- GALAP preemergence herbicidal rating (GALAP (Galium); rate 0.0625 kg/ha): 0.0
- GALAP preemergence herbicidal rating (GALAP (Galium); rate 0.1250 kg/ha): 0.0
- GALAP preemergence herbicidal rating (GALAP (Galium); rate 0.2500 kg/ha): 4.0
- CHEAL herbicidal rating ([3]; rate 0.0158 kg/ha): 2.0
- CHEAL herbicidal rating ([3]; rate 0.0315 kg/ha): 4.0
- CHEAL herbicidal rating ([3]; rate 0.0630 kg/ha): 9.0
- AMBEL preemergence herbicidal rating (AMBEL (Ragweed, Common); rate 0.0625 kg/ha): 0.0
- AMBEL preemergence herbicidal rating (AMBEL (Ragweed, Common); rate 0.1250 kg/ha): 0.0
- AMBEL preemergence herbicidal rating (AMBEL (Ragweed, Common); rate 0.2500 kg/ha): 2.0
- Herbicidal rating SAGPY ([4]; rate 0.0313 kg/ha): 0.0
- Herbicidal rating SAGPY ([4]; rate 0.0625 kg/ha): 0.0
- Herbicidal rating SAGPY ([4]; rate 0.1250 kg/ha): 0.0
- Herbicidal rating SAGPY ([4]; rate 0.2500 kg/ha): 0.0
- TRZAWR herbicidal rating ([5]; rate 0.0158 kg/ha): 3.5
- TRZAWR herbicidal rating ([5]; rate 0.0315 kg/ha): 3.5
- TRZAWR herbicidal rating ([5]; rate 0.0630 kg/ha): 3.5
- SETVI herbicidal rating (SETVI (Foxtail, Green) [6]; rate 0.0158 kg/ha): 0.0
- SETVI herbicidal rating (SETVI (Foxtail, Green) [6]; rate 0.0315 kg/ha): 0.0
- SETVI herbicidal rating (SETVI (Foxtail, Green) [6]; rate 0.0630 kg/ha): 0.0
- ABUTH herbicidal rating (ABUTH (Velvetleaf); rate 0.0158 kg/ha): 9.0
- ABUTH herbicidal rating (ABUTH (Velvetleaf); rate 0.0315 kg/ha): 9.0
- ABUTH herbicidal rating (ABUTH (Velvetleaf); rate 0.0630 kg/ha): 9.0
- ORYSAT herbicidal rating (ORYSAT (Rice, Tebonnet); rate 0.0158 kg/ha): 2.5
- ORYSAT herbicidal rating (ORYSAT (Rice, Tebonnet); rate 0.0315 kg/ha): 3.0
- ORYSAT herbicidal rating (ORYSAT (Rice, Tebonnet); rate 0.0630 kg/ha): 3.0
- GLXMAW herbicidal rating ([7]; rate 0.0158 kg/ha): 4.0
- GLXMAW herbicidal rating ([7]; rate 0.0315 kg/ha): 5.0
- GLXMAW herbicidal rating ([7]; rate 0.0630 kg/ha): 5.5
